Earlier results on 3 molecules are cited in patent US20240082176A1 (Productos Farmaceuticos, S.A. DE C.V., priority 2017, published 2024).

For data set [1] the following is noted: in vivo.
The test system of data set [2] is citric acid-induced cough.
The conditions of data set [3]: in vivo. The source holds these as a separate data set.

As to `OCC(O)CN1CCN(c2ccccc2)CC1` (racemic) [dropropizine, (R, S)-3-(4-phenylpiperazin-1-yl) propane-1,2-diol], the elimination half-life in data set [1] was 4 h. Further, in data set [2] (after the administration of the drug), the “time after administration at which cough suppression is reached” value is 1 h. Also, the “period for which the antitussive effect persists” value in data set [2] (human, in vivo) is 6 h. In addition, in the data set on cough (vs codeine), the “antitussive activity compared with codeine” value was “comparable”. Further, in the data set with cough (vs levodropropizine), the “antitussive activity compared with its levo enantiomer” value was “comparable”.
In the case of `Nc1c(Br)cc(Br)cc1CN[C@H]1CC[C@H](O)CC1` [ambroxol, trans-4-[(2-amino-3,5-dibromophenyl)methylamino] cyclohexane-1-ol], in data set [3], the “renal clearance as share of total clearance” value is recorded as 8% and the terminal elimination half-life was 10 h.
With `OC[C@@H](O)CN1CCN(c2ccccc2)CC1` [levodropropizine], the oral bioavailability entry (estimated) is given as “greater than 75%”. Further, the “half-life t1/2” value (in vivo) was 2 h. Moreover, in the data set with plasma protein, the plasma protein binding is listed as 11-14%.
